Results published in patent US20220183294A1, “PESTICIDALLY ACTIVE AZOLE AMIDE COMPOUNDS” (SYNGENTA CROP PROTECTION AG, priority 2019, published 2022).

How the values were obtained:
Format in all cases: in vivo
[1] = tested on: Diabrotica balteata (Corn root worm); test: Example B1: Diabrotica balteata (Corn root worm), sprayed maize sprouts; settings: 96 h, application rate 200 ppm, L2 larvae, 4 days after infestation, read-out: control in at least one of the two categories (mortality or growth inhibition)
Description: Example B1: Diabrotica balteata (Corn root worm)
Maize sprouts placed onto an agar layer in 24-well microtiter plates were treated with aqueous test solutions prepared from 10′000 ppm DMSO stock solutions by spraying. After drying, the plates were infested with L2 larvae (6 to 10 per well). The samples were assessed for mortality and growth inhibition in comparison to untreated samples 4 days after infestation.
(§1) The following compounds gave an effect of at least 80% control in at least one of the two categories (mortality or growth inhibition) at an application rate of 200 ppm: […]

[2] = tested on: Chilo suppressalis (Striped rice stemborer); test: Example B4: Chilo suppressalis (Striped rice stemborer), artificial diet; settings: 144 h, application rate 200 ppm, L2 larvae, 6 days after infestation, read-out: control in at least one of the three categories (mortality, anti-feedant effect, or growth inhibition)
Description: Example B4: Chilo suppressalis (Striped rice stemborer) 24-well microtiter plates with artificial diet were treated with aqueous test solutions prepared from 10′000 ppm DMSO stock solutions by pipetting. After drying, the plates were infested with L2 larvae (6-8 per well). The samples were assessed for mortality, anti-feeding effect, and growth inhibition in comparison to untreated samples 6 days after infestation. Control of Chilo suppressalis by a test sample is given when at least one of the categories mortality, anti-feedant effect, and growth inhibition is higher than the untreated sample.

[3] = tested on: Plutella xylostella (Diamond back moth); test: Example B5: Plutella xylostella (Diamond back moth), artificial diet, 24-well; settings: 192 h, application rate 200 ppm, eggs, 8 days after infestation, read-out: control in at least one of the two categories (mortality or growth inhibition)
Description: Example B5: Plutella xylostella (Diamond back moth)
24-well microtiter plates with artificial diet were treated with aqueous test solutions prepared from 10′000 ppm DMSO stock solutions by pipetting. After drying, Plutella eggs were pipetted through a plastic stencil onto a gel blotting paper and the plate was closed with it. The samples were assessed for mortality and growth inhibition in comparison to untreated samples 8 days after infestation.
as §1

[4] = tested on: Spodoptera littoralis (Egyptian cotton leaf worm); test: Example B9: Spodoptera littoralis (Egyptian cotton leaf worm), sprayed cotton leaf discs; settings: foliar, 72 h, application rate 200 ppm, L1 larvae, 3 days after infestation, read-out: control in at least one of the three categories (mortality, anti-feedant effect, or growth inhibition)
Description: Example B9: Spodoptera littoralis (Egyptian cotton leaf worm)
Cotton leaf discs were placed onto agar in 24-well microtiter plates and sprayed with aqueous test solutions prepared from 10′000 ppm DMSO stock solutions. After drying the leaf discs were infested with five L1 larvae. The samples were assessed for mortality, anti-feeding effect, and growth inhibition in comparison to untreated samples 3 days after infestation. Control of Spodoptera littoralis by a test sample is given when at least one of the categories mortality, anti-feedant effect, and growth inhibition is higher than the untreated sample.

CC(NC(=O)c1cc(C(F)(F)F)cc(C(F)(F)C2CC2)c1)c1ncnn1-c1ccc(C#N)cn1 (centres unmarked) [P4, N-[1-[2-(5-cyano-2-pyridyl)-1,2,4-triazol-3-yl]ethyl]-3-[cyclopropyl(difluoro)methyl]-5-(trifluoromethyl)benzamide]
≥ 80%: percent control (mortality or growth inhibition) at 200 ppm [1] | percent control (mortality, anti-feedant effect or growth inhibition) at 200 ppm [2] | percent control (mortality or growth inhibition) at 200 ppm [3] | percent control (mortality, anti-feedant effect or growth inhibition) at 200 ppm [4]

CC(NC(=O)c1cc(C(F)(F)F)nc(C2(C#N)CC2)c1)c1ncnn1-c1ncc(OC(F)F)cn1 (centres unmarked) [P8, 2-(1-cyanocyclopropyl)-N-[1-[2-[5-(difluoromethoxy)pyrimidin-2-yl]-1,2,4-triazol-3-yl]ethyl]-6-(trifluoromethyl) pyridine-4-carboxamide]
≥ 80%: percent control (mortality or growth inhibition) at 200 ppm [1] | percent control (mortality, anti-feedant effect or growth inhibition) at 200 ppm [2] | percent control (mortality or growth inhibition) at 200 ppm [3] | percent control (mortality, anti-feedant effect or growth inhibition) at 200 ppm [4]

CC(NC(=O)c1cc(C(F)(F)F)nc(C2(C#N)CC2)c1)c1ncnn1-c1ncc(OCC(F)F)cn1 (centres unmarked) [P10, 2-(1-cyanocyclopropyl)-N-[1-[2-[5-(2,2-difluoroethoxy)pyrimidin-2-yl]-1,2,4-triazol-3-yl]ethyl]-6-(trifluoromethyl) pyridine-4-carboxamide]
≥ 80%: percent control (mortality or growth inhibition) at 200 ppm [1] | percent control (mortality, anti-feedant effect or growth inhibition) at 200 ppm [2] | percent control (mortality or growth inhibition) at 200 ppm [3] | percent control (mortality, anti-feedant effect or growth inhibition) at 200 ppm [4]

CC(NC(=O)c1cc(C(F)(F)F)cc(C(F)(F)C2CC2)c1)c1ncnn1-c1ncc(OCC(F)F)cn1 (centres unmarked) [P11, 3-[cyclopropyl(difluoro)methyl]-N-[1-[2-[5-(2,2-difluoroethoxy)pyrimidin-2-yl]-1,2,4-triazol-3-yl]ethyl]-5-(trifluoromethyl) benzamide]
≥ 80%: percent control (mortality or growth inhibition) at 200 ppm [1] | percent control (mortality, anti-feedant effect or growth inhibition) at 200 ppm [2] | percent control (mortality or growth inhibition) at 200 ppm [3] | percent control (mortality, anti-feedant effect or growth inhibition) at 200 ppm [4]

CC(NC(=O)c1cc(C2CC2C(F)(F)F)cc(C(F)(F)F)c1)c1ncnn1-c1ccc(C#N)cn1 (centres unmarked) [P13, N-[1-[2-(5-cyano-2-pyridyl)-1,2,4-triazol-3-yl]ethyl]-3-(trifluoromethyl)-5-[2-(trifluoromethyl)cyclopropyl]benzamide]
≥ 80%: percent control (mortality or growth inhibition) at 200 ppm [1] | percent control (mortality, anti-feedant effect or growth inhibition) at 200 ppm [2] | percent control (mortality or growth inhibition) at 200 ppm [3] | percent control (mortality, anti-feedant effect or growth inhibition) at 200 ppm [4]

CC(NC(=O)c1cc(C2CC2)nc(C(F)(F)F)c1)c1ncnn1-c1ccc(C#N)cn1 (centres unmarked) [P15, N-[1-[2-(5-cyano-2-pyridyl)-1,2,4-triazol-3-yl]ethyl]-2-cyclopropyl-6-(trifluoromethyl)pyridine-4-carboxamide]
≥ 80%: percent control (mortality or growth inhibition) at 200 ppm [1] | percent control (mortality, anti-feedant effect or growth inhibition) at 200 ppm [2] | percent control (mortality or growth inhibition) at 200 ppm [3] | percent control (mortality, anti-feedant effect or growth inhibition) at 200 ppm [4]

CC(NC(=O)c1cc(C(F)(F)F)cc(S(=O)(=O)C(F)(F)F)c1)c1ncnn1-c1ncc(OCC(F)F)cn1 (centres unmarked) [P16, N-[1-[2-[5-(2,2-difluoroethoxy)pyrimidin-2-yl]-1,2,4-triazol-3-yl]ethyl]-3-(trifluoromethyl)-5-(trifluoromethylsulfonyl) benzamide]
≥ 80%: percent control (mortality or growth inhibition) at 200 ppm [1] | percent control (mortality, anti-feedant effect or growth inhibition) at 200 ppm [2] | percent control (mortality or growth inhibition) at 200 ppm [3] | percent control (mortality, anti-feedant effect or growth inhibition) at 200 ppm [4]

CC(NC(=O)c1cc(C(F)(F)F)nc(C2(C#N)CC2)c1)c1ncnn1-c1ccc(OC(F)F)cn1 (centres unmarked) [P17, 2-(1-cyanocyclopropyl)-N-[1-[2-[5-(difluoromethoxy)-2-pyridyl]-1,2,4-triazol-3-yl]ethyl]-6-(trifluoromethyl) pyridine-4-carboxamide]
≥ 80%: percent control (mortality or growth inhibition) at 200 ppm [1] | percent control (mortality, anti-feedant effect or growth inhibition) at 200 ppm [2] | percent control (mortality or growth inhibition) at 200 ppm [3] | percent control (mortality, anti-feedant effect or growth inhibition) at 200 ppm [4]

CC(NC(=O)c1cc(C(F)(F)F)cc(C2(C#N)CC2)c1)c1ncnn1-c1ccc(C#N)cn1 (centres unmarked) [P18, 3-(1-cyanocyclopropyl)-N-[1-[2-(5-cyano-2-pyridyl)-1,2,4-triazol-3-yl]ethyl]-5-(trifluoromethyl) benzamide]
≥ 80%: percent control (mortality, anti-feedant effect or growth inhibition) at 200 ppm [2] | percent control (mortality or growth inhibition) at 200 ppm [3] | percent control (mortality, anti-feedant effect or growth inhibition) at 200 ppm [4]

CC(NC(=O)c1cc(C(F)(F)F)cc(C(F)(F)C2CC2)c1)c1ncnn1-c1ccc(OC(F)F)cn1 (centres unmarked) [P19, 3-[cyclopropyl(difluoro)methyl]-N-[1-[2-[5-(difluoromethoxy)-2-pyridyl]-1,2,4-triazol-3-yl]ethyl]-5-(trifluoromethyl) benzamide]
≥ 80%: percent control (mortality, anti-feedant effect or growth inhibition) at 200 ppm [2] | percent control (mortality or growth inhibition) at 200 ppm [3] | percent control (mortality, anti-feedant effect or growth inhibition) at 200 ppm [4]

CC(NC(=O)c1cc(C(F)(F)F)cc(C(F)(F)C2CC2)c1)c1ncnn1-c1ncc(OCC(F)(F)F)cn1 (centres unmarked) [P20, 3-[cyclopropyl(difluoro)methyl]-N-[1-[2-[5-(2,2,2-trifluoroethoxy)pyrimdin-2-yl]-1,2,4-triazol-3-yl]ethyl]-5-(trifluoromethyl) benzamide]
≥ 80%: percent control (mortality, anti-feedant effect or growth inhibition) at 200 ppm [2] | percent control (mortality or growth inhibition) at 200 ppm [3] | percent control (mortality, anti-feedant effect or growth inhibition) at 200 ppm [4]

CC(NC(=O)c1cc(C2CC2)cc(C(F)(F)F)c1)c1ncnn1-c1ncc(OCC(F)F)cn1 (centres unmarked) [P23, 3-cyclopropyl-N-[1-[2-[5-(2,2-difluoroethoxy)pyrimidin-2-yl]-1,2,4-triazol-3-yl]ethyl]-5-(trifluoromethyl) benzamide]
≥ 80%: percent control (mortality or growth inhibition) at 200 ppm [1] | percent control (mortality, anti-feedant effect or growth inhibition) at 200 ppm [2] | percent control (mortality or growth inhibition) at 200 ppm [3] | percent control (mortality, anti-feedant effect or growth inhibition) at 200 ppm [4]

CC(NC(=O)c1cc(C(F)(F)F)cc(C2(C#N)CC2)c1)c1ncnn1-c1ccc(OC(F)F)cn1 (centres unmarked) [P24, 3-(1-cyanocyclopropyl)-N-[1-[2-[5-(difluoromethoxy)-2-pyridyl]-1,2,4-triazol-3-yl]ethyl]-5-(trifluoromethyl) benzamide]
≥ 80%: percent control (mortality or growth inhibition) at 200 ppm [1] | percent control (mortality, anti-feedant effect or growth inhibition) at 200 ppm [2] | percent control (mortality or growth inhibition) at 200 ppm [3] | percent control (mortality, anti-feedant effect or growth inhibition) at 200 ppm [4]

CC(NC(=O)c1cc(C(F)(F)F)cc(C2(C#N)CC2)c1)c1ncnn1-c1ncc(OCC(F)(F)F)cn1 (centres unmarked) [P25, 3-(1-cyanocyclopropyl)-N-[1-[2-[5-(2,2,2-trifluoroethoxy)pyrimidin-2-yl]-1,2,4-triazol-3-yl]ethyl]-5-(trifluoromethyl) benzamide]
≥ 80%: percent control (mortality, anti-feedant effect or growth inhibition) at 200 ppm [2] | percent control (mortality or growth inhibition) at 200 ppm [3] | percent control (mortality, anti-feedant effect or growth inhibition) at 200 ppm [4]

CC(NC(=O)c1cc(C(F)(F)F)cc(C2(C#N)CC2)c1)c1ncnn1-c1ncc(OC(F)F)cn1 (centres unmarked) [P26, 3-(1-cyanocyclopropyl)-N-[1-[2-[5-(difluoromethoxy)pyrimidin-2-yl]-1,2,4-triazol-3-yl]ethyl]-5-(trifluoromethyl) benzamide]
≥ 80%: percent control (mortality, anti-feedant effect or growth inhibition) at 200 ppm [2] | percent control (mortality or growth inhibition) at 200 ppm [3] | percent control (mortality, anti-feedant effect or growth inhibition) at 200 ppm [4]

CC(NC(=O)c1cc(C(F)(F)F)nc(C2(C#N)CC2)c1)c1ncnn1-c1ncc(OCC(F)(F)F)cn1 (centres unmarked) [P30, 2-(1-cyanocyclopropyl)-N-[1-[2-[5-(2,2,2-trifluoroethoxy)pyrimidin-2-yl]-1,2,4-triazol-3-yl]ethyl]-6-(trifluoromethyl) pyridine-4-carboxamide]
≥ 80%: percent control (mortality or growth inhibition) at 200 ppm [3] | percent control (mortality, anti-feedant effect or growth inhibition) at 200 ppm [4]

CC(NC(=O)c1cc(C(F)(F)F)cc(C2(C#N)CC2)c1)c1ncnn1-c1ncc(OCC(F)F)cn1 (centres unmarked) [P31, 3-(1-cyanocyclopropyl)-N-[1-[2-[5-(2,2-difluoroethoxy)pyrimidin-2-yl]-1,2,4-triazol-3-yl]ethyl]-5-(trifluoromethyl) benzamide]
≥ 80%: percent control (mortality, anti-feedant effect or growth inhibition) at 200 ppm [2] | percent control (mortality or growth inhibition) at 200 ppm [3]
